For twelve compounds, TGI results are on record in PubChem BioAssay (NCI).

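96-well plates; 48 h exposure; 5 concentrations. Endpoints by linear interpolation between flanking doses. Not reached: highest tested concentration assigned. TGI: total growth inhibition.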

Among the test systems are IGROV1 ovarian; OVCAR-4 ovarian; NCI-H522 lung; COLO 205 colon; SF-268 CNS; LOX IMVI melanoma; A498 renal; CAKI-1 renal; NCI-H226 lung; OVCAR-5 ovarian; MDA-MB-435; SW-620 colon; SK-MEL-5 melanoma; TK-10 renal; T-47D breast; HCT-15 colon; EKVX NSCLC; UACC-257 melanoma; SK-MEL-28 melanoma.
Assay in all cases: NCI tumour cell line growth inhibition, 48 h

In the case of `COc1ccc(/C=C2\NC(=S)N(/C=C3\C(=O)Oc4ccccc4C3=O)C2=O)cc1OC`, the TGI in the assay on IGROV1 ovarian, with OVCAR-4 ovarian, in the assay with NCI-H522 lung, in the assay with COLO 205 colon, in the assay with SF-268 CNS and in the assay with LOX IMVI melanoma was more than 100 µM each time. In addition, the TGI in the assay on A498 renal, with CAKI-1 renal, with NCI-H226 lung, in the assay on OVCAR-5 ovarian, in the assay on MDA-MB-435 and with SW-620 colon was more than 100 µM in each case. For the same compound, the TGI with SK-MEL-5 melanoma, with TK-10 renal, in the assay on T-47D breast, in the assay on HCT-15 colon, in the assay on EKVX NSCLC and in the assay on UACC-257 melanoma was more than 100 µM throughout.
As to `COc1cc(C=O)cc(/C=N/n2c3ccccc3c3ccccc32)c1O`, the TGI was more than 100 µM in the assay on OVCAR-4 ovarian; 73.2 µM with NCI-H522 lung; 52.1 µM with COLO 205 colon; more than 100 µM in the assay with SF-268 CNS; more than 100 µM in the assay with SK-MEL-28 melanoma; more than 100 µM with LOX IMVI melanoma. The TGI in the assay on A498 renal is 48.7 µM; in the assay with CAKI-1 renal it was more than 100 µM; with NCI-H226 lung, more than 100 µM; in the assay on OVCAR-5 ovarian, more than 100 µM; in the assay with MDA-MB-435 it was 47.5 µM; with SW-620 colon, more than 100 µM. For the same compound, the TGI in the assay on TK-10 renal, with T-47D breast, in the assay on HCT-15 colon, with EKVX NSCLC and in the assay on UACC-257 melanoma was more than 100 µM throughout.
As for `COc1ccc(CCCCl)c(C2=NCCc3cc(OC)c(OC)cc32)c1`, the TGI with IGROV1 ovarian is more than 100 µM; in the assay on OVCAR-4 ovarian, more than 100 µM; in the assay with NCI-H522 lung, more than 100 µM; with COLO 205 colon, 68.9 µM; with SF-268 CNS it was more than 100 µM; in the assay on SK-MEL-28 melanoma, more than 100 µM. Further, the TGI in the assay with A498 renal, with CAKI-1 renal, with NCI-H226 lung, in the assay with OVCAR-5 ovarian, in the assay on MDA-MB-435 and with SW-620 colon was more than 100 µM each time. For the same compound, the TGI with SK-MEL-5 melanoma is 59.4 µM; with TK-10 renal it was more than 100 µM; in the assay with T-47D breast it was more than 100 µM; in the assay with HCT-15 colon, more than 100 µM; in the assay with EKVX NSCLC, more than 100 µM; with UACC-257 melanoma it was more than 100 µM.
For `CC1OC(OC2C(O)COC(OC3C(C)OC(OC4C(OC(=O)[C@]56CCC(C)(C)C[C@@H]5C5=CCC7[C@@]8(C)C[C@H](O)[C@H](OC9OC(CO)C(O)C(OC%10OC(CO)C(O)C(O)C%10O)C9O)[C@@](C)(CO)[C@@H]8CC[C@@]7(C)[C@]5(C)CC6)OCC(O)C4O)C(O)C3OC3OCC(O)(CO)C3O)C2O)C(O)C(O)C1O` (stereo not given in full), the TGI is 19.5 µM with OVCAR-4 ovarian; 17.4 µM in the assay on NCI-H522 lung; 14.9 µM with COLO 205 colon; 20.3 µM with SF-268 CNS; 14 µM with SK-MEL-28 melanoma; 17.8 µM with LOX IMVI melanoma. Besides, the TGI is 20.4 µM with A498 renal; 12.4 µM in the assay on CAKI-1 renal; 23.4 µM in the assay on NCI-H226 lung; 17.4 µM in the assay with OVCAR-5 ovarian; 24.4 µM in the assay on MDA-MB-435; 15.7 µM in the assay with SW-620 colon. Further, the TGI stood at 15.8 µM in the assay on SK-MEL-5 melanoma; 22.1 µM in the assay with TK-10 renal; 25 µM in the assay with T-47D breast; 19.1 µM in the assay with HCT-15 colon; 13.2 µM in the assay with EKVX NSCLC; 20.9 µM in the assay on UACC-257 melanoma.
As to `CCc1cccc(C(C)(C)C)c1NC(=S)N/C=C(/C#N)C(N)=O`, the TGI in the assay on IGROV1 ovarian, with OVCAR-4 ovarian, in the assay with NCI-H522 lung, in the assay with COLO 205 colon, in the assay on SF-268 CNS and with SK-MEL-28 melanoma was more than 100 µM throughout. The TGI in the assay on LOX IMVI melanoma, in the assay with A498 renal, in the assay on CAKI-1 renal, with NCI-H226 lung, in the assay on OVCAR-5 ovarian and with MDA-MB-435 was more than 100 µM throughout. For the same compound, the TGI in the assay on SW-620 colon, with SK-MEL-5 melanoma, with T-47D breast, in the assay on HCT-15 colon, in the assay with EKVX NSCLC and with UACC-257 melanoma was more than 100 µM in each case.
Regarding `O=C(O)c1cc(CC2Cc3cc4c(cc3C2=O)CCC4)cc2c1CCC2` (stereo not given), the TGI with IGROV1 ovarian, in the assay with OVCAR-4 ovarian, with NCI-H522 lung, in the assay on COLO 205 colon, with SF-268 CNS and with SK-MEL-28 melanoma was more than 100 µM in each case. Moreover, the TGI in the assay on LOX IMVI melanoma, with A498 renal, with CAKI-1 renal, in the assay on NCI-H226 lung, in the assay on OVCAR-5 ovarian and in the assay on MDA-MB-435 was more than 100 µM in each case. Also, the TGI in the assay with SW-620 colon, in the assay with TK-10 renal, with T-47D breast, with HCT-15 colon, with EKVX NSCLC and in the assay with UACC-257 melanoma was more than 100 µM each time.
As for `COC(=O)C1CC2CCC1(O[Si](C(C)C)(C(C)C)C(C)C)C(O)C2` (stereo not given), the TGI was 94 µM in the assay with IGROV1 ovarian; more than 100 µM with OVCAR-4 ovarian; 44.7 µM with NCI-H522 lung; 71.2 µM in the assay with COLO 205 colon; 79.2 µM in the assay with SF-268 CNS; 44.9 µM in the assay on SK-MEL-28 melanoma. The TGI is 27.5 µM in the assay on LOX IMVI melanoma; more than 100 µM with A498 renal; more than 100 µM in the assay on CAKI-1 renal; 40.7 µM in the assay with NCI-H226 lung; 27.2 µM in the assay on OVCAR-5 ovarian; 30.9 µM with MDA-MB-435. The TGI was determined as 60.8 µM in the assay on SW-620 colon; 61.7 µM in the assay with SK-MEL-5 melanoma; 76.7 µM in the assay on T-47D breast; 30.6 µM in the assay on HCT-15 colon; 33.6 µM in the assay on EKVX NSCLC.
With `O=C(NNC(=S)Nc1ccccc1)c1cc(-c2ccccc2)nc2ccccc12`, the TGI was more than 100 µM in the assay on IGROV1 ovarian; 56.2 µM in the assay with OVCAR-4 ovarian; 52.6 µM with NCI-H522 lung; 36.8 µM in the assay on COLO 205 colon; 76.3 µM with SF-268 CNS; 59.5 µM in the assay on SK-MEL-28 melanoma. The TGI came to 28 µM in the assay with A498 renal; 64.8 µM in the assay on CAKI-1 renal; 63.8 µM in the assay with NCI-H226 lung; 36.3 µM in the assay with OVCAR-5 ovarian; 59.4 µM with MDA-MB-435; 49.9 µM with SW-620 colon. Also, the TGI in the assay with SK-MEL-5 melanoma was 27 µM; in the assay with TK-10 renal, more than 100 µM; in the assay on T-47D breast, 50.5 µM; with HCT-15 colon, 33 µM; in the assay with UACC-257 melanoma, 60.1 µM.
In the case of `COc1cc(C(=O)/C=C/c2ccc(OCC#N)cc2)cc(OC)c1OC`, the TGI was more than 100 µM in the assay with IGROV1 ovarian; more than 100 µM in the assay on OVCAR-4 ovarian; 35.9 µM in the assay with NCI-H522 lung; 39.5 µM with COLO 205 colon; more than 100 µM with SF-268 CNS; 32 µM in the assay on SK-MEL-28 melanoma. In addition, the TGI in the assay with A498 renal is 65.9 µM; in the assay on CAKI-1 renal it was 69.6 µM; in the assay with NCI-H226 lung it was 58.5 µM; in the assay on OVCAR-5 ovarian, more than 100 µM; in the assay on MDA-MB-435 it was 40.2 µM; in the assay on SW-620 colon, 37.3 µM. For the same compound, the TGI in the assay on SK-MEL-5 melanoma is 25.9 µM; in the assay with TK-10 renal, 70.1 µM; with T-47D breast, 36.5 µM; with HCT-15 colon, 40.3 µM; in the assay on EKVX NSCLC it was more than 100 µM; with UACC-257 melanoma, more than 100 µM.
In the case of `O=C(O)c1n[nH][nH]c1=S`, the TGI in the assay on IGROV1 ovarian, in the assay with OVCAR-4 ovarian, with NCI-H522 lung, in the assay on COLO 205 colon, in the assay on SF-268 CNS and in the assay on SK-MEL-28 melanoma was more than 100 µM in each case. In addition, the TGI in the assay with LOX IMVI melanoma, in the assay on A498 renal, in the assay on CAKI-1 renal, with NCI-H226 lung, in the assay with OVCAR-5 ovarian and in the assay on MDA-MB-435 was more than 100 µM in each case. The TGI in the assay with SW-620 colon, in the assay on SK-MEL-5 melanoma, in the assay with T-47D breast, with HCT-15 colon, in the assay on EKVX NSCLC and in the assay on UACC-257 melanoma was more than 100 µM each time.
With `N#C[C@@H](c1nc2ccccc2s1)c1ncccc1[N+](=O)[O-]`, the TGI in the assay with OVCAR-4 ovarian is more than 100 µM; in the assay with NCI-H522 lung it was 12 µM; in the assay with COLO 205 colon, 8.8 µM; with SF-268 CNS, more than 31.6 µM; in the assay on LOX IMVI melanoma it was 13.9 µM; with A498 renal, more than 31.6 µM. In addition, the TGI in the assay on CAKI-1 renal was more than 100 µM; in the assay with NCI-H226 lung it was 87.8 µM; in the assay on OVCAR-5 ovarian it was more than 31.6 µM; in the assay with MDA-MB-435 it was more than 100 µM; with SK-MEL-5 melanoma, 37.3 µM; with TK-10 renal, 74.7 µM. The TGI with T-47D breast was 25 µM; in the assay with HCT-15 colon it was more than 31.6 µM; in the assay on EKVX NSCLC, more than 31.6 µM; in the assay on UACC-257 melanoma, more than 100 µM.
For `N=C(N)C1CN(CCCCCCCCCCN2CC(C(=N)N)C(=O)NC2=O)C(=O)NC1=O` (stereo not given), the TGI with IGROV1 ovarian, with OVCAR-4 ovarian, in the assay on NCI-H522 lung, with COLO 205 colon, with LOX IMVI melanoma and in the assay with A498 renal was more than 10 µM throughout. Besides, the TGI with CAKI-1 renal, with NCI-H226 lung, with OVCAR-5 ovarian, in the assay on MDA-MB-435, with SW-620 colon and with SK-MEL-5 melanoma was more than 10 µM throughout. Moreover, the TGI in the assay on TK-10 renal, in the assay with T-47D breast, with HCT-15 colon, with EKVX NSCLC and in the assay with UACC-257 melanoma was more than 10 µM in each case.
